Reference: patent publication EP4703362A1 (Chengdu Sibeibo Pharmaceutical Technology Co., Ltd, priority 2023, dated 2024)

What follows are compounds tested against T1, CGRP receptor complex (Homo sapiens, UniProt O60894+Q16602) (assay: determination of cell functional antagonism - cAMP determination). Details: not given.
T1 construct: host or cells: SK-N-MC
Type: cell-based
Protocol: 1.Experimental principle A CGRP receptor complex was coupled with Gs in G protein, the combination of CGRP and CGRP receptor complex led to Gs activation, and cAMP (3',5'-cyclic adenosine monophosphate) was produced. 2.Experimental purpose The ability of the compound of the present invention to inhibit CGRP-stimulated cAMP formation in SK-N-MC cells was determined. 3.Experimental materials 3.1Experimental cell line: SK-N-MC (neuroepithelioma cells) from National Science and Technology Infrastructure - Biomedical Materials and Cell Resources. 3.2Reagents and consumables
4.Experimental steps • 4.1Cell preparation: The SK-N-MC cells were resuscitated and cultured in advance, and a cell confluence degree should be 70%-80% before use. • 4.2A sample dilution, a tested compound and α-CGRP (human) were prepared. • 4.3Cell seeding and drug effect: The SK-N-MC cells were digested, centrifuged, then resuspended with the sample dilution, and inoculated into a 384-well plate. Each well was added with the α-CGRP (human) and the tested compound respectively, and blown and mixed evenly. The well plate was adhered with a sealing film, and placed on an enzyme-labeled incubator to incubate at 25°C. • 4.4cAMP determination: carried out according to LANCE Ultra cAMP Kit specification Eu-cAMP tracer and ULight-anti-cAMP working solutions were prepared in the dark, respectively added into the well plate, and blown and mixed evenly.

T1 sequence (Q16602 23-461): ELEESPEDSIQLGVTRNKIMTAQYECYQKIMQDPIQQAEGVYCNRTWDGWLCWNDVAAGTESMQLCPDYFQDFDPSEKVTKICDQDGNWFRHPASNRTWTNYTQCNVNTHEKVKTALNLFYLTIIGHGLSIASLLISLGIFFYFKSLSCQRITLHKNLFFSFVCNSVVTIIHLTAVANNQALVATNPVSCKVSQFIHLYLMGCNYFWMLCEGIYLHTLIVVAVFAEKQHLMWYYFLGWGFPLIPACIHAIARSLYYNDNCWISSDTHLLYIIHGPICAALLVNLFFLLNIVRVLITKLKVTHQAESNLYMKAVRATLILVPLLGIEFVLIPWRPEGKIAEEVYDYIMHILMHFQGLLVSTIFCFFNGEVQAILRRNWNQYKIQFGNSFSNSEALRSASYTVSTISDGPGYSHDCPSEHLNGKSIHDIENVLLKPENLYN
T1 sequence (O60894 27-148): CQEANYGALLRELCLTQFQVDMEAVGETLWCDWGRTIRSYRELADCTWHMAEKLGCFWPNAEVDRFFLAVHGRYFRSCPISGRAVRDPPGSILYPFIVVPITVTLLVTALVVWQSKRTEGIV

Row | Structure (SMILES) | IC50
1 | Cc1cc(C[C@@H](NC(=O)N2CCC(c3cc4c([nH]c3=O)CCC4(C)C)CC2)C(=O)N2CCN(C3CCN(C)CC3)CC2)cc2cn[nH]c12 [Example 7] | 6.02 nM
2 | Cc1cc(C[C@@H](NC(=S)N2CCC(c3cc4c([nH]c3=O)SCC4)CC2)C(=O)N2CCN(C3CCN(C)CC3)CC2)cc2cn[nH]c12 [Example 16] | 0.71 nM
3 | Cc1cc(C[C@@H](NC(=O)N2CCC(c3cc4c([nH]c3=O)SCC4)CC2)C(=O)N2CCC(C)(N3CCCCC3)CC2)cc2cn[nH]c12 [Example 22, (R)-N-(3-(7-methyl-1H-indazole-5-yl)-1-(4'-methyl-[1,4'-bipiperidine]-1'-yl)-1-oxopropan-2-yl)-4-(6-oxo-2,3,6,7-tetrahydrothieno[2,3-b]pyridine-6-yl)piperidine-1-formamide] | 0.81 nM
4 | Cc1cc(C[C@@H](NC(=S)N2CCC(c3cc4c([nH]c3=O)SCCC4)CC2)C(=O)N2CCN(C3CCN(C)CC3)CC2)cc2cn[nH]c12 [Example 23] | 1.12 nM
5 | Cc1cc(C[C@@H](NC(=O)N2CCC(c3cc4c([nH]c3=O)[S+]([O-])CCC4)CC2)C(=O)N2CCN(C3CCN(C)CC3)CC2)cc2cn[nH]c12 (stereo partly drawn) [Example 32, N-((R)-3-(7-methyl-1H-indazole-5-yl)-1-(4-(1-methylpiperidine-4-yl)piperazine-1-yl)-1-oxopropan-2-yl)-4-(1-oxidation-7-oxo-3,4,7,8-tetrahydro-2H-thiopyrano[2,3-b]pyridine-6-yl)pipe ridine-1-formamide] | 0.29 nM
6 | Cc1cc(C[C@@H](NC(=O)N2CCC(c3cc4c([nH]c3=O)SCC43CC3)CC2)C(=O)N2CCN(C3CCN(C)CC3)CC2)cc2cn[nH]c12 [Example 33, (R)-N-(3-(7-methyl-1H-indazole-5-yl)-1-(4-(1-methylpiperidine-4-yl)piperazine-1-yl)-1-oxopropan-2-yl)-4-(6'-oxo-6',7'-dihydro-2'H-spiro[cyclopropane-1,3'-thieno][2,3-b]pyridine-5'-yl)piperidine-1-formamide] | 0.37 nM
7 | Cc1cc(C[C@@H](NC(=O)N2CCC(c3cc4c([nH]c3=O)[S+]([O-])CC4)CC2)C(=O)N2CCN(C3CCN(C)CC3)CC2)cc2cn[nH]c12 (stereo partly drawn) [Example 35, N-((R)-3-(7-methyl-1H-indazole-5-yl)-1-(4-(1-methylpiperidine-4-yl)piperazine-1-yl)-1-oxopropan-2-yl)-4-(1-oxidation-6-oxo-2,3,6,7-tetrahydrothieno[2,3-b]pyridine-5-yl)piperidine-1-formamide] | 0.69 nM
8 | Cc1cc(C[C@@H](NC(=O)N2CCC(c3cc4c([nH]c3=O)SCC4)CC2)C(=O)N2CC3CC2CC3N2CCCCC2)cc2cn[nH]c12 (stereo partly drawn) [Example 36] | 4.61 nM
9 | Cc1cc(CC(OC(=O)N2CCC(c3cc4c([nH]c3=O)SCCC4)CC2)C(=O)N2CCN(C3CCN(C)CC3)CC2)cc2cn[nH]c12 (stereo not drawn) [Example 41] | 0.38 nM

Same assay, conditions: inhibition of CGRP-stimulated cAMP formation in SK-N-MC cells

Row | Structure (SMILES) | IC50
10 | Cc1cc(C[C@@H](NC(=O)N2CCC(c3cc4c([nH]c3=O)CSCC4)CC2)C(=O)N2CCN(C3CCN(C)CC3)CC2)cc2cn[nH]c12 [Example 13, (R)-N-(3-(7-methyl-1H-indazole-5-yl)-1-(4-(1-methylpiperidine-4-yl)piperazine-1-yl)-1-oxopropan-2-yl)-4-(2-oxo-2,5,6,8-tetrahydro-1H-thiopyrano[3,4-b]pyridine-3-yl)piperidine-1-for mamide] | 1.44 nM
11 | Cc1cc(C[C@@H](NC(=O)N2CCN(c3cc4c([nH]c3=O)SCCC4)CC2)C(=O)N2CCN(C3CCN(C)CC3)CC2)cc2cn[nH]c12 [Example 18, (R)-N-(3-(7-methyl-1H-indazole-5-yl)-1-(4-(1-methylpiperidine-4-yl)piperazine-1-yl)-1-oxopropan-2-yl)-4-(7-oxo-3,4,7,8-tetrahydro-2H-thiopyrano[2,3-b]pyridine-6-yl)piperazine-1-for mamide] | 0.95 nM

Same assay, conditions: inhibition of CGRP-stimulated cAMP formation in SK-N-MC cells; read-out: IC50

Row | IC50 | Structure (SMILES)
12 | 0.65 nM | Cc1cc(C[C@@H](NC(=O)N2CCC(c3cc4c([nH]c3=O)SCC4(C)C)CC2)C(=O)N2CCN(C3CCN(C)CC3)CC2)cc2cn[nH]c12 [Example 2, (R)-4-(3,3-dimethyl-6-oxo-2,3,6,7-tetrahydrothieno[2,3-b]pyridine-5-yl)-N-(3-(7-methyl-1H-indazole-5-yl)-1-(4-(1-methylpiperidine-4-yl)piperazine-1-yl)-1-oxopropan-2-yl)piperidine-1-formamide]
13 | 7.83 nM | Cc1cc(C[C@@H](NC(=O)N2CCC(c3cc4c([nH]c3=O)CSC4)CC2)C(=O)N2CCN(C3CCN(C)CC3)CC2)cc2cn[nH]c12 [Example 11, (R)-N-(3-(7-methyl-1H-indazole-5-yl)-1-(4-(1-methylpiperidine-4-yl)piperazine-1-yl)-1-oxopropan-2-yl)-4-(2-oxo-1,2,5,7-tetrahydrothieno[3,4-b]pyridine-3-yl)piperidine-1-formamide]
14 | 15.4 nM | Cc1cc(C[C@@H](NC(=O)N2CCC(c3cc4c([nH]c3=O)CCS4)CC2)C(=O)N2CCN(C3CCN(C)CC3)CC2)cc2cn[nH]c12 [Example 17, (R)-N-(3-(7-methyl-1H-indazole-5-yl)-1-(4-(1-methylpiperidine-4-yl)piperazine-1-yl)-1-oxopropan-2-yl)-4-(5-oxo-2,3,4,5-tetrahydrothieno[3,2-b]pyridine-6-yl)piperidine-1-formamide]
15 | 0.39 nM | Cc1cc(C[C@@H](NC(=O)N2CCC(c3cc4c([nH]c3=O)SCC4)CC2)C(=O)N2CCC(N3CCN(C)CC3)CC2)cc2cn[nH]c12 [Example 19, (R)-N-(3-(7-methyl-1H-indazole-5-yl)-1-(4-(4-methylpiperazine-1-yl)piperidine-1-yl)-1-oxopropan-2-yl)-4-(6-oxo-2,3,6,7-tetrahydrothieno[2,3-b]pyridine-5-yl)piperidine-1-formamide]
16 | 0.37 nM | Cc1cc(C[C@@H](NC(=O)N2CCC(c3cc4c([nH]c3=O)SCC4)CC2)C(=O)N2CCC(N3CCCCC3)CC2)cc2cn[nH]c12 [Example 20, (R)-N-(1-([1,4'-bipiperidine]-1'-yl)-3-(7-methyl-1H-indazole-5-yl)-1-oxopropan-2-yl)-4-(6-oxo-2,3,6,7-tetrahydrothieno[2,3-b]pyridine-5-yl)piperidine-1-formamide]
17 | 1.02 nM | Cc1cc(C[C@@H](NC(=O)N2CCC(c3cc4c([nH]c3=O)SCCC4)CC2)C(=O)N2CCC(C)(N3CCCCC3)CC2)cc2cn[nH]c12 [Example 24, (R)-N-(3-(7-methyl-1H-indazole-5-yl)-1-(4'-methyl-[1,4'-bipiperidine]-1'-yl)-1-oxopropan-2-yl)-4-(7-oxo-3,4,7,8-tetrahydro-2H-thiopyrano[2,3-b]pyridine-6-yl)piperidine-1-formamide]
18 | 0.1 nM | Cc1cc(C[C@@H](NC(=O)N2CCC(c3cc4c([nH]c3=O)SCCC4)CC2)C(=O)N2CCC(N3CCCCC3)CC2)cc2cn[nH]c12 [Example 26, (R)-N-(1-([1,4'-bipiperidine]-1'-yl)-3-(7-methyl-1H-indazole-5-yl)-1-oxopropan-2-yl)-4-(7-oxo-3,4,7,8-tetrahydro-2H-thiopyrano[2,3-b]pyridine-6-yl)piperidine-1-formamide]
19 | 1.24 nM | Cc1cc(CC(CC(=O)N2CCC(c3cc4c([nH]c3=O)SCCC4)CC2)C(=O)N2CCN(C3CCN(C)CC3)CC2)cc2cn[nH]c12 (stereo not drawn) [Example 27, 2-((7-methyl-1H-indazole-5-yl)methyl)-1-(4-(1-methylpiperidine-4-yl)piperazine-1-yl)-4-(4-(7-oxo-3,4,7,8-tetrahydro-2H-thiopyrano[2,3-b]pyridine-6-yl)piperidine-1-yl)butane-1,4-dione]
20 | 2.05 nM | Cc1cc(CC(CC(=O)N2CCC(c3cc4c([nH]c3=O)SCC4)CC2)C(=O)N2CCN(C3CCN(C)CC3)CC2)cc2cn[nH]c12 (stereo not drawn) [Example 31, 2-((7-methyl-1H-indazole-5-yl)methyl)-1-(4-(1-methylpiperidine-4-yl)piperazine-1-yl)-4-(4-(6-oxo-2,3,6,7-tetrahydrothieno[2,3-b]pyridine-5-yl)piperidine-1-yl)butane-1,4-dione]
21 | 3.47 nM | Cc1cc(C[C@@H](NC(=O)N2CCC(c3cc4c([nH]c3=O)SCCC4)CC2)C(=O)N2CC3CC2CC3N2CCCCC2)cc2cn[nH]c12 (stereo partly drawn) [Example 40, N-((2R)-3-(7-methyl-1H-indazole-5-yl)-1-oxo-1-(5-(piperidine-1-yl)-2-azabicyclo[2.2.1]hept-2-yl)propan-2-yl)-4-(7-oxo-3,4,7,8-tetrahydro-2H-thiopyrano[2,3-b]pyridine-6-yl)piperidine-1-formamide]
22 | 0.27 nM | Cc1cc(CC(OC(=O)N2CCC(c3cc4c([nH]c3=O)SCC4)CC2)C(=O)N2CCN(C3CCN(C)CC3)CC2)cc2cn[nH]c12 (stereo not drawn) [Example 42, 3-(7-methyl-1H-indazole-5-yl)-1-(4-(1-methylpiperidine-4-yl)piperazine-1-yl)-1-oxopropan-2-yl-4-(6-oxo-2,3,6,7-tetrahydrothieno[2,3-b]pyridine-5-yl)piperidine-1-formate]

Row | Structure (SMILES) | IC50
23 | Cc1cc(C[C@@H](NC(=O)N2CCC(c3cc4c([nH]c3=O)SCCC4)CC2)C(=O)N2C3CCC2CC(N2CCCCC2)C3)cc2cn[nH]c12 (stereo partly drawn) [Example 39, N-((2R)-3-(7-methyl-1H-indazole-5-yl)-1-oxo-1-(3-(piperidine-1-yl)-8-azabicyclo[3.2.1]octane-8-yl)propan-2-yl)-4-(7-oxo-3,4,7,8-tetrahydro-2H-thiopyrano[2,3-b]pyridine-6-yl)piperidine-1-formamide] | 0.13 nM

Same assay, conditions: inhibition of CGRP-stimulated cAMP formation, statement of the conclusion

Row | IC50 values / inhibitory activities (in words) | Structure (SMILES)
24 | pM level | Cc1cc(C[C@@H](NC(=O)N2CCC(c3cc4c([nH]c3=O)SCC4(C)C)CC2)C(=O)N2CCN(C3CCN(C)CC3)CC2)cc2cn[nH]c12 [Example 2, (R)-4-(3,3-dimethyl-6-oxo-2,3,6,7-tetrahydrothieno[2,3-b]pyridine-5-yl)-N-(3-(7-methyl-1H-indazole-5-yl)-1-(4-(1-methylpiperidine-4-yl)piperazine-1-yl)-1-oxopropan-2-yl)piperidine-1-formamide]
